In patent US7160903B2, “Sulfonylaminocarboxylic acids” (Sanofi-Aventis Deutschland GmbH, priority 1997, dated 2007):

What was measured:
[1] = molecular target: T1, neutrophil collagenase (MMP-8) (Homo sapiens, UniProt P22894); assay: Enzymatic activity of the catalytic domain of neutrophil collagenase (fluorogenic substrate); assay type: biochemical; details: pH=6.5, 15 min preincubation, fluorescence 328 nm (ex)/393 nm (em), read-out: Neutr. collagenase IC50
T1 construct: enzymatic activity of the catalytic domains of human stromelysin and of neutrophil collagenase; made in house
T1 sequence (P22894 100-262 limits assumed): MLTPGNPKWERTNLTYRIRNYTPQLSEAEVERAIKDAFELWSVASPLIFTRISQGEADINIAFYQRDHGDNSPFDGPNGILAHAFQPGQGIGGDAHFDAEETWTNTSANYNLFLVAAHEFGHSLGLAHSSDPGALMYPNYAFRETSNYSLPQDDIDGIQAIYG
Method: (§1) Preparation and determination of the enzymatic activity of the catalytic domains of human stromelysin and of neutrophil collagenase:
(§2) The enzymes stromelysin (MMP-3) and neutrophil collagenase (MMP-8) were prepared according to Ye et al. (Biochemistry; 31 (1992) pages 11231–11235). To measure the enzyme activity or the enzyme inhibitor action, 70 μl of buffer solution and 10 μl of enzyme solution are incubated for 15 min with 10 μl of a 10% strength (v/v) aqueous dimethyl sulfoxide solution, which optionally contains the enzyme inhibitor. After addition of 10 μl of a 10% strength (v/v) aqueous dimethyl sulfoxide solution which contains 1 mmol/L of the substrate, the enzyme reaction is monitored by fluorescence spectroscopy (328 nm (ex)/393 nm(em)). The enzyme activity is shown as the extinction increase/min. The IC50 values listed in Table 2 are determined as those inhibitor concentrations which in each case led to a 50% inhibition of the enzyme.
(§3) The buffer solution contains 0.05% Brij (Sigma, Deisenhofen, Germany) and also 0.1 mol/L Tris/HCl, 0.1 mol/L NaCl, 0.01 mol/L CaCl2 and 0.1 mol/L piperazine-N,N′-bis[2-ethanesulfonic acid] (pH=6.5). The enzyme solution contains 5 μg/ml of one of the enzyme domains prepared according to Ye et al. The substrate solution contains 1 mmol/L of the fluorogenic substrate (7-methoxycoumarin-4-yl)acetyl-Pro-Leu-Gly-Leu-3-(2′,4′-dinitrophenyl)-L-2,3-diaminopropionyl-Ala-Arg-NH2 (Bachem, Heidelberg, Germany).

stromelysin (MMP-3) = molecular target: T2, stromelysin (MMP-3) (Homo sapiens, UniProt P08254); assay: Enzymatic activity of the catalytic domain of human stromelysin (fluorogenic substrate); assay type: biochemical; details: pH=6.5, 15 min preincubation, fluorescence 328 nm (ex)/393 nm (em)
T2 construct: enzymatic activity of the catalytic domains of human stromelysin and of neutrophil collagenase; made in house
T2 sequence (P08254 100-272 limits assumed): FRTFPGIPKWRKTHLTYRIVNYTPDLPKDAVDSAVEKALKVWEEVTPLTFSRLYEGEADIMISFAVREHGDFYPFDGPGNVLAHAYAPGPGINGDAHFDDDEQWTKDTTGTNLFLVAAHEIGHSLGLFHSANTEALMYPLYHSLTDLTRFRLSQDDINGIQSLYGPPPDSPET
Method: as §1, §2, §3

Row | Structure (SMILES) | melting point | IC50 [1] | IC50 (stromelysin (MMP-3))
1 | O=C(CC[C@H](NS(=O)(=O)c1ccc(-c2ccccc2)cc1)C(=O)O)Nc1ccc([N+](=O)[O-])cc1 [Example 75] | 232 to 233 °C | 0.02 µM | 0.3 µM
2 | O=C(O)C1CCCCN1S(=O)(=O)c1ccc(-c2ccccc2)cc1 (racemic) [Example 55] | 174.5 to 175.5 °C | 0.04 µM | 0.8 µM
3 | O=C(CC[C@H](NS(=O)(=O)c1ccc(-c2ccccc2)cc1)C(=O)O)Nc1ccccc1Cl [Example 74] | 187.5 to 188.5 °C | 0.01 µM | 0.1 µM
4 | Br.CN(C)c1ccc(-c2ccc(S(=O)(=O)N[C@@H](CC(=O)O)C(=O)O)cc2)cc1 [Example 40] | 121 to 127 °C | 0.002 µM | 0.07 µM
5 | O=C(CC[C@H](NS(=O)(=O)c1ccc(-c2ccccc2)cc1)C(=O)O)Nc1ccc(F)cc1 [Example 91] | > 258 °C (dec.) | 0.01 µM | 0.3 µM
6 | CN(C)c1ccc(-c2ccc(S(=O)(=O)N[C@@H](CCC(=O)Nc3ccccc3)C(=O)O)cc2)cc1 [Example 81] | 240.5 to 241.5 °C (dec.) | 0.002 µM | 0.01 µM
7 | CN(C)c1ccc(-c2ccc(S(=O)(=O)N[C@@H](CCC(=O)O)C(=O)O)cc2)cc1 [Example 70] | > 108 °C (dec.) | 0.003 µM | 0.1 µM
8 | CN(C)c1ccc(-c2ccc(S(=O)(=O)N[C@H](Cc3c[nH]c4ccccc34)C(=O)O)cc2)cc1 [Example 66] | 258 to 260 °C | 0.002 µM | 0.02 µM
9 | COc1ccc(CC(NS(=O)(=O)c2ccc(-c3ccc(N(C)C)cc3)cc2)C(=O)O)cc1OC (racemic) [Example 65] | > 230 °C (dec.) | 0.003 µM | 0.1 µM
10 | O=C(O)[C@@H](Cc1cccs1)NS(=O)(=O)c1ccc(-c2ccc(Cl)cc2)cc1 [Example 27] | > 200 °C (dec.) | 0.01 µM | 0.2 µM
11 | CSCC[C@H](NC(=O)CC[C@H](NS(=O)(=O)c1ccc(-c2ccccc2)cc1)C(=O)O)C(=O)O [Example 58] | 159 to 161 °C | 0.006 µM | 0.04 µM
12 | O=C(CC[C@H](NS(=O)(=O)c1ccc(-c2ccc(Cl)cc2)cc1)C(=O)O)Nc1ccc(F)cc1 [Example 87] | > 245 °C (dec.) | 0.005 µM | 0.03 µM
13 | O=C(O)CC[C@@H](NS(=O)(=O)c1ccc(-c2ccccc2)cc1)C(=O)O [Example 61] | 155 to 158 °C | 0.02 µM | 0.4 µM
14 | O=C(O)C(Cc1c[nH]c2ccc(F)cc12)NS(=O)(=O)c1ccc(-c2ccc(N3CCCC3)cc2)cc1 (racemic) [Example 78] | > 230 °C (dec.) | 0.002 µM | 0.02 µM
15 | CSCC[C@H](NC(=O)CC[C@H](NS(=O)(=O)c1ccc(-c2ccc(N(C)C)cc2)cc1)C(=O)O)C(=O)O [Example 62] | 121 °C | 0.002 µM | 0.007 µM
16 | O=C(CC[C@H](NS(=O)(=O)c1ccc(-c2ccc(N3CCCC3)cc2)cc1)C(=O)O)Nc1ccccc1 [Example 80] | > 228 °C (dec.) | 0.002 µM | 0.007 µM
17 | O=C(CC[C@H](NS(=O)(=O)c1ccc(-c2ccccc2)cc1)C(=O)O)Nc1ccc(C(F)(F)F)cc1 [Example 85] | 265 °C | 0.03 µM | 3 µM
